From patent US20190262457A1, “NOVEL ALKYLATING AGENT” (CHIBA-PREFECTURE, priority 2016, published 2019)
Where two headings read alike, the source gives them in different places.

Legend:
[1] = known log-P of calibration compounds; cited from earlier work
SW480 cells = experiment: Cytotoxicity and IC50 comparison with CBI by WST assay, 48 hours; assay type: cell-based, human; details: Homo sapiens, WST-8
Experimental: (§1) From the cell lines mentioned above, a large intestine cancer cell line SW480 was used as cells expressing PD-1, and a large intestine cancer cell line RKO was used as cells expressing PD-L1. An experiment was conducted to compare toxicity and IC50 between the PIP-drug conjugate compound CCC07-01 and the alkylating agent CBI used as a drug conjugate therein. The cells of each line were inoculated at 3000 cells/well to a 96-well microplate and cultured overnight. On the next day, the cells were treated with the PIP-CBI conjugate (CCC07-01) or CBI having a concentration of 0.1, 1, 10, 30, 100, 300, or 1000 nM (1 μM) for 48 hours. Then, WST-8 reagent was added to each well using Cell counting kit-8, and the mixture was reacted for 2 hours. Then, the cell count was calculated at a wavelength of 450 nm by the colorimetric analysis method using a microplate reader. The method for calculating the cell count involved: 1) obtaining the mean value of a medium alone, 2) subtracting the mean value of the medium from each well, 3) obtaining the mean value of DMSO, 4) dividing the medium mean value-subtracted value by the mean value of DMSO and then multiplying by 100, and 5) obtaining the mean value of each treatment group and a standard deviation, and preparing a graph. IC50 was calculated according to the following expression: IC50=10(LOG(A/B)×(50−C)/(D−C)+LOG(B) wherein A: a higher concentration of two concentrations sandwiching 50%, B: a lower concentration of two concentrations sandwiching 50%, C: the rate of inhibition at B, and D: the rate of inhibition at A.

RKO cells = experiment: as above; assay type: cell-based, human; details: Homo sapiens, WST-8
Experimental: as §1

CTLA4 gene [2] = experiment: Experiment to silence CTLA4 gene by real-time PCR, CCC07-03; assay type: cell-based, human; details: A2058 cells
Experimental: (§2) A2058 cells were cultured at 1×10^5 cells/well in a 6-well plate. On the next day, the cells were treated with 0, 5, 50, or 500 nM CCC07-03 for 6 hours, 24 hours, or 48 hours. The cells were recovered, and total RNA was extracted therefrom. The extraction employed AllPrep DNA/RNA Mini Kit (Qiagen N.V., CA). Next, cDNA was prepared by reverse transcription with the extracted RNA as a template using Super Script VILO™ Master Mix (Invitrogen Corp., CA) and subjected to qPCR. The qPCR conditions involved a holding stage at 50° C. for 2 min and 95° C. for 10 min, a cycling stage (40 cycles) at 95° C. for 15 sec and at 60° C. for 1 min, and a melt curve stage at 95° C. for 15 sec, at 60° C. for 1 min, at 95° C. for 30 sec, and at 60° C. for 15 sec. A relative expression level was quantified with GAPDH (primers: SEQ ID NOs: 21 and 22) as a control. The PCR of CTLA4 employed the following primer set.

PD-L1 gene = experiment: Experiment to silence PD-L1 gene by real-time PCR, CCC07-03; assay type: cell-based, human
Experimental: as §2, with “RKO” for “A2058”, “GAPDH” for “GAPDH (primers: SEQ ID NOs: 21 and 22)”, “PD-L1” for “CTLA4”

CTLA4 gene [3] = experiment: Study on CTLA4 gene silencing by negative control polyamide CCC07-04; assay type: cell-based, human; details: A2058 cells
Experimental: as §2, with “CCC07-04” for “CCC07-03”

mouse Pd-11 gene = experiment: Experiment to silence mouse Pd-11 gene by real-time PCR; assay type: cell-based; details: B16F1 cells
Experimental: as §2, with “B16F1” for “A2058”, “100, 200, 300, 400,” for “5, 50,”, “CCC07-04” for “CCC07-03”, “(3-tubulin” for “GAPDH (primers: SEQ ID NOs: 21 and 22)”, “Pd-11” for “CTLA4”

[4] = known log-P of calibration compounds; cited from earlier work; remark: listed apart in the source
malignant melanoma = details: phase III clinical trial; cited from earlier work
[5] = 24 hours or later after administration

Compound: N#Cc1ccccc1 [Benzonitrile]
- logPow [1]: 1.56

Compound: Oc1cc2c(c3ccccc13)C(CCl)CN2 (stereo not shown) [CBI, 1-chloromethyl-5-hydroxy-1,2-dihydro-3H-benzo [e]indole, reference compound]
- IC50 (SW480 cells): 10 nM
- IC50 (RKO cells): 3 nM

Compound: CC(=O)Nc1cn(C)c(C(=O)Nc2cn(C)c(C(=O)Nc3cc(C(=O)NCCC(=O)Nc4cn(C)c(C(=O)Nc5cc(C(=O)Nc6cc(C(=O)NCCCC(=O)Nc7cn(C)c(C(=O)Nc8cn(C)c(C(=O)Nc9cc(C(=O)NCCC(=O)Nc%10cc(C(=O)Nc%11ccc%12[nH]c(C(=O)N%13CC(CCl)c%14c%13cc(O)c%13ccccc%14%13)cc%12c%11)n(C)c%10)n(C)c9)n8)n7)n(C)c6)n(C)c5)n4)n(C)c3)n2)n1 (stereo not shown) [CCC07-03]
- expression of CTLA-4 (CTLA4 gene [2]; 500 nM, 24 hours): markedly decreased
- expression of CTLA-4 (CTLA4 gene [2]; 6 hours): elevated
- expression of PD-L1 (PD-L1 gene; RKO cells, 50 nM, 24 hours): statistically significantly decreased
- expression of PD-L1 (PD-L1 gene; RKO cells, 500 nM, 6 hours): tended to be decreased
- expression of PD-L1 (PD-L1 gene; RKO cells, 5, 50, 500 nM, 48 hours): decreased according to the concentration

Compound: CC(=O)Nc1cn(C)c(C(=O)Nc2cn(C)c(C(=O)Nc3cc(C(=O)NCCC(=O)Nc4cc(C(=O)Nc5cn(C)c(C(=O)Nc6cn(C)c(C(=O)NCCCC(=O)Nc7cc(C(=O)Nc8cc(C(=O)Nc9cc(C(=O)NCCC(=O)Nc%10cn(C)c(C(=O)Nc%11ccc%12[nH]c(C(=O)N%13CC(CCl)c%14c%13cc(O)c%13ccccc%14%13)cc%12c%11)n%10)n(C)c9)n(C)c8)n(C)c7)n6)n5)n(C)c4)n(C)c3)n2)n1 (stereo not shown) [CCC07-04]
- expression of CTLA-4 (CTLA4 gene [3]; 6 hours): elevated
- state of the cells (cell death suggested) (CTLA4 gene [3]; [5]): All the cells floated
- expression of Pd-11 (mouse Pd-11 gene; 100-500 nM, 6 hours): statistically significantly decreased
- state of the cells (cell death suggested) (mouse Pd-11 gene; [5]): All the mouse B16F1 cells floated

Compound: CCOC(C)=O [Ethyl acetate]
- logPow [1]: 0.73

Compound: c1ccc2[nH]ccc2c1 [Indole]
- logPow [1]: 2.14
- logPow [4]: 2.14

Compound: ipilimumab: anti-CTLA-4 antibody
- objective response rate (ORR) (malignant melanoma): 11%
